Measurements: patent publication US20200377496A1, “INDOLE AND BENZIMIDAZOLE DERIVATIVES AS DUAL 5-HT2A and 5-HT6 RECEPTOR ANTAGONISTS” (ADAMED PHARMA, S.A., priority 2018, published 2020)

Columns and labels:
5-HT6 receptors = 5-HT6 receptors (Homo sapiens, UniProt P50406); experiment: 5-HT6 receptor binding assay ([3H]-LSD radioligand); conditions: membranes from CHO-K1 cells with human 5-HT6 receptor, [3H]-LSD 1 nM
Procedure: (§1) Preparation of Solutions of Test and Reference Compounds.
1 mM stock solutions of tested compounds were prepared in DMSO. Serial dilutions of compounds were prepared in 96-well microplate in assay buffers using automated pipetting system epMotion 5070 (Eppendorf). Each compound was tested in 10 concentrations from 1.0E-6 to 1.0E-11 M (final concentration).
5-HT6 Receptor Binding Assay.
Radioligand binding was performed using membranes from CHO-K1 cells stably transfected with the human 5-HT6 receptor (PerkinElmer). All assays were carried out in duplicates. 50 μl working solution of the tested compounds, 50 μl [3H]-LSD (final concentration 1 nM) and 150 μl diluted membranes (8 μg protein per well) prepared in assay buffer (50 mM Tris, pH 7.4, 10 mM MgCl2, 0.1 mM EDTA) were transferred to polypropylene 96 well microplate using 96-wells pipetting station Rainin Liquidator (MettlerToledo). Methiothepin (10 μM) was used to define nonspecific binding. Microplate was covered with a sealing tape, mixed and incubated for 60 minutes at 37° C. The reaction was terminated by rapid filtration through GF/A filter mate presoaked with 0.5% polyethyleneimine for 30 minutes. Ten rapid washes with 200 μl 50 mM Tris buffer (4° C., pH 7.4) were performed using automated harvester system Harvester-96 MACH III FM (Tomtec). The filter mates were dried at 37° C. in forced air fan incubator and then solid scintilator MeltiLex was melted on filter mates at 90° C. for 5 minutes. Radioactivity was counted in MicroBeta2 scintillation counter (PerkinElmer). Data were fitted to a one-site curve-fitting equation with Prism 6 (GraphPad Software) and Ki values were estimated from the Cheng-Prusoff equation.

human GPCR 5-HT6 = human GPCR 5-HT6 (Homo sapiens, UniProt P50406); experiment: Cellular aequorin-based functional assay, 5-HT6; type: cell-based; conditions: for 5-HT6 AGO EC50 [nM]: agonist mode, CHO-K1 aequorin cells; for Kb: antagonist mode, reference agonist serotonin 40 nM (EC80), read-out: 5-HT6 ANT Kb
Chain of human GPCR 5-HT6 (P50406 whole entry): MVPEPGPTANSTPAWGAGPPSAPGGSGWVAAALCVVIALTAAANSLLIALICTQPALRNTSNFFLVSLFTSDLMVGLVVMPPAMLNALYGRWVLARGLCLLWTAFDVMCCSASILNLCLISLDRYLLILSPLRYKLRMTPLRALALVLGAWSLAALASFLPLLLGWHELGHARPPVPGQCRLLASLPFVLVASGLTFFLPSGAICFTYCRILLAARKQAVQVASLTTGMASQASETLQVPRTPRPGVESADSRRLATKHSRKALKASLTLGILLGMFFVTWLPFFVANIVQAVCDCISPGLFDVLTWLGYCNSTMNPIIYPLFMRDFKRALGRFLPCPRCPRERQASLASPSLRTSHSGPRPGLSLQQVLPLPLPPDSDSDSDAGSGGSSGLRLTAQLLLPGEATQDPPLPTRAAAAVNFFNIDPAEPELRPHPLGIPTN
Procedure: as §1
1 mM stock solutions of the tested compounds were prepared in DMSO. Serial dilutions were prepared in 96-well microplate in assay buffers using automated pipetting system epMotion 5070 (Eppendorf). Two independent experiments in duplicates were performed and 6 to 10 concentrations were tested.
5-HT2A and 5-HT6 Functional Activity Assays.
Cellular aequorin-based functional assays were performed with γ-irradiated recombinant CHO-K1 cells expressing mitochondrially-targeted Aequorin, human GPCR (5-HT2A or 5-HT6) and the promiscuous G protein α16 (PerkinElemer). Assays were performed according to the standard protocol provided by the manufacturer. After thawing, cells were transferred to assay buffer (DMEM/HAM's F12 with 0.1% protease-free BSA) and centrifuged. Cell pellet was resuspended in assay buffer and coelenterazine h was added at final concentrations of 5 μM. Cell suspension was incubated at 21° C., protected from light with constant agitation, for 4 hours and then diluted with assay buffer to a concentration of 250,000 cells/ml. After 1 hour incubation 50 yl cell suspension was dispensed using automatic injectors built in radiometric and luminescence plate counter MicroBeta2 LumiJET (PerkinElmer, USA) into white opaque 96-well microplate preloaded with tested compounds. Immediate light emission generated following calcium mobilization was recorded for 30-60 seconds. In antagonist mode, after 15-30 minutes incubation reference agonist was added to the above assay mix and light emission was recorded again. Final concentration of reference agonist was equal EC80: serotonin 40 nM for 5-HT6 receptor and α-methylserotonin 30 nM for 5-HT2A receptor. The assays were performed in the agonist mode (5-HT6 AGO and 5-HT2A AGO) as well as antagonist mode (5-HT6 ANT and 5-HT2A ANT).
IC50 and EC50 were determined by non-linear regression analysis using GraphPad Prism 6.0 software. The log IC50 was used to obtain the Kb by applying the Cheng-Prusoff approximation.

[1] = test system: head twitches induced by 5-HT2A/C receptor agonist DOI; experiment: DOI-induced head twitches in Wistar rats; type: in vivo; conditions: hydrochloride salt p.o. 180 min before observation; DOI 2.5 mg/kg i.p.; male Wistar rats
Procedure: Biological Example 3. Effects of Compounds 1 and 17, on Head Twitches Induced by a 5-HT2A/C receptor agonist, 1-(2,5-dimethoxy-4-Iodophenyl)-2-aminopropane hydrochloride (DOI) in Wistar Rats
Drug-naive male Wistar rats (Charles River, Sulzfeld, Germany) were used. Rats were housed four per standard plastic cage and kept in a room with constant environmental conditions (22±1° C., relative humidity 60%, a 12:12 light-dark cycle with lights on at 07:00 a.m.). Animals were supplied by the breeder 2 weeks before the onset of behavioral procedures. During this time, the subjects were weighted and handled several times. The rats were also habituated to p.o. administration of tested compounds in form of hydrochloride salt by gavage dosing of distilled water (1-2 mL). Tap water and standard lab chow (Labofeed H, WPIK, Kcynia, Poland) was available ad libitum.
All tests were carried out in a sound-attenuated experimental room between 10:00 a.m. and 04:00 p.m. DOI-induced head twitches were scored as described by Millan et al. (2000). Rats were injected with DOI (2.5 mg/kg, i.p.) and placed in glass observation cages (25×25×40 cm, W×H×L) with wood chip bedding on the floor. Five minutes later, head twitches were counted for 5 min. (300 s) by a trained observer. […]
Total numbers of head twitches (n/5 min.) were analyzed with the aid of the Kruskal-Wallis analysis of variance (ANOVA). […]

Chain of 5-HT6 receptors (P50406 whole entry): as above

| SMILES | Ki (5-HT6 receptors) | 5-HT6 AGO EC50 [nM] (human GPCR 5-HT6) | Kb (human GPCR 5-HT6) | minimum effective dose (MED), attenuation of DOI-induced head twitches [1] |
| --- | --- | --- | --- | --- |
| FC(F)(F)c1nc2c(N3CCNCC3)cccc2n1Cc1ccccc1 [Compound 1, 1-benzyl-4-(piperazin-1-yl)-2-(trifluoromethyl)-1H-benzimidazole] | 1.3 nM | N.C. | 2.5 nM | 3.0 mg/kg |
| FC(F)(F)c1cc2c(N3CCNCC3)cccc2n1Cc1ccco1 [Compound 17, 1-(furan-2-ylmethyl)-4-(piperazin-1-yl)-2-(trifluoromethyl)-1H-indole] | 0.62 nM | N.C. | 0.47 nM | 1.0 mg/kg |
